Assay results from patent US20210045385A1, “PYRIDAZINONE-SUBSTITUTED KETOXIMES AS HERBICIDES” (FMC Corporation, priority 2018, published 2021).

Tests used:
Type in all cases: in vivo
[1] = tested on: sedge umbrella (small-flower umbrella sedge, Cyperus difformis); test: Test D flooded paddy test, visual plant response rating; conditions: 250 g ai/ha, scale 0 to 100 (0 no effect, 100 complete control), 13 to 15 d
Outline: (§1)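 Rating is visual, on a 0 (no effect) to 100 (complete control) scale versus controls, taken 13 to 15 d after treatment in a greenhouse. Treatment went into paddy water kept 3 cm above the soil surface, with plants at the 2-leaf stage.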

[2] = tested on: duck salad (Heteranthera limosa); test: as above; conditions: 250 g ai/ha, scale 0 to 100 (0 no effect, 100 complete control), 13 to 15 d
Outline: as §1

[3] = tested on: barnyardgrass (Echinochloa crus-galli); test: as above; conditions: 250 g ai/ha, scale 0 to 100 (0 no effect, 100 complete control), 13 to 15 d
Outline: as §1

rice (Oryza sativa) = test: as above; conditions: 250 g ai/ha, scale 0 to 100 (0 no effect, 100 complete control), 13 to 15 d
Outline: as §1

[4] = tested on: galium (catchweed bedstraw, Galium aparine); test: Test C postemergence, visual plant response rating
Outline: (§2)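 Visual injury on a 0 (no effect) to 100 (complete control) scale versus untreated controls, scored approximately 10 d after treatment under greenhouse conditions. Treatments used surfactant-containing non-phytotoxic solvent formulations, sprayed onto loam–sand soil preemergence or onto one- to two-leaf plants 2–10 cm tall postemergence.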

[5] = tested on: pigweed (Amaranthus retroflexus); test: Test C postemergence, visual plant response rating
Outline: as §2

[6] = tested on: wheat (Triticum aestivum); test: Test C postemergence, visual plant response rating
Outline: as §2

[7] = tested on: blackgrass (Alopecurus myosuroides); test: Test C postemergence, visual plant response rating
Outline: as §2

[8] = tested on: foxtail, giant (giant foxtail, Setaria faberi); test: Test C postemergence, visual plant response rating
Outline: as §2

[9] = tested on: ragweed (common ragweed, Ambrosia artemisiifolia); test: Test C postemergence, visual plant response rating
Outline: as §2

kochia (Bassia scoparia) [10] = test: Test C postemergence, visual plant response rating
Outline: as §2

[11] = tested on: barnyardgrass (Echinochloa crus-galli); test: Test C postemergence, visual plant response rating
Outline: as §2

[12] = tested on: Italian ryegrass (Lolium mutiflorum); test: Test C postemergence, visual plant response rating
Outline: as §2

corn (Zea mays) = test: Test C postemergence, visual plant response rating
Outline: as §2

[13] = tested on: pigweed (Amaranthus retroflexus); test: Test C preemergence, visual plant response rating
Outline: as §2

[14] = tested on: foxtail, giant (giant foxtail, Setaria faberi); test: Test C preemergence, visual plant response rating
Outline: as §2

[15] = tested on: ragweed (common ragweed, Ambrosia artemisiifolia); test: Test C preemergence, visual plant response rating
Outline: as §2

kochia (Bassia scoparia) [16] = test: Test C preemergence, visual plant response rating
Outline: as §2

[17] = tested on: barnyardgrass (Echinochloa crus-galli); test: Test C preemergence, visual plant response rating
Outline: as §2

[18] = tested on: Italian ryegrass (Lolium mutiflorum); test: Test C preemergence, visual plant response rating
Outline: as §2

[19] = Test C, postemergence, 125 g ai/ha
[20] = Test C, 31 g ai/ha, 0 is no effect, 100 is complete control
[21] = Test C, 125 g ai/ha, 0 is no effect, 100 is complete control

| Structure (SMILES) | Plant response rating, Sedge, Umbrella (Flood) [1] | Plant response rating, Ducksalad (Flood) [2] | Plant response rating, Barnyardgrass (Flood) [3] | Plant response rating, Rice (Flood) (rice (Oryza sativa)) | Galium plant response rating (0 to 100 scale) ([4]; Postemergence, 31 g ai/ha) | Galium plant response rating (0 to 100 scale) [4, 19] | Pigweed plant response rating (0 to 100 scale) ([5]; Postemergence, 31 g ai/ha) | Pigweed plant response rating (0 to 100 scale) [5, 19] | Wheat plant response rating (0 to 100 scale) ([6]; Postemergence, 31 g ai/ha) | Wheat plant response rating (0 to 100 scale) [6, 19] | Blackgrass plant response rating (0 to 100 scale) ([7]; Postemergence, 31 g ai/ha) | Blackgrass plant response rating (0 to 100 scale) [7, 19] | Foxtail, Giant plant response rating (0 to 100 scale) ([8]; Postemergence, 31 g ai/ha) | Foxtail, Giant plant response rating (0 to 100 scale) [8, 19] | Ragweed plant response rating (0 to 100 scale) ([9]; Postemergence, 31 g ai/ha) | Ragweed plant response rating (0 to 100 scale) [9, 19] | Kochia plant response rating (0 to 100 scale) (kochia (Bassia scoparia) [10]; Postemergence, 31 g ai/ha) | Kochia plant response rating (0 to 100 scale) (kochia (Bassia scoparia) [10]; [19]) | Barnyardgrass plant response rating (0 to 100 scale) ([11]; Postemergence, 31 g ai/ha) | Barnyardgrass plant response rating (0 to 100 scale) [11, 19] | other results |
| --- | --- | --- | --- | --- | --- | --- | --- | --- | --- | --- | --- | --- | --- | --- | --- | --- | --- | --- | --- | --- | --- |
| C#CCON=C(c1cccc(OCC)c1)c1c(O)c(C)nn(C)c1=O [Compound 199] | 0 | 0 | 0 | 0 | 20 | 30 | 0 | 0 | 0 | 0 | 0 | 20 | 0 | 20 | 0 | 0 | 0 | 0 | 0 | 20 | Ryegrass, Italian plant response rating (0 to 100 scale) ([12]; Postemergence, 31 g ai/ha): 0; Ryegrass, Italian plant response rating (0 to 100 scale) [12, 19]: 0; Corn plant response rating (0 to 100 scale) (corn (Zea mays); Postemergence, 31 g ai/ha): 0; Corn plant response rating (0 to 100 scale) (corn (Zea mays); [19]): 0; Pigweed plant response rating (0 to 100 scale) [13, 20]: 0; Pigweed plant response rating (0 to 100 scale) [13, 21]: 10; Foxtail, Giant plant response rating (0 to 100 scale) [14, 20]: 0; Foxtail, Giant plant response rating (0 to 100 scale) [14, 21]: 10; Ragweed plant response rating (0 to 100 scale) [15, 20]: 0; Ragweed plant response rating (0 to 100 scale) [15, 21]: 0; Kochia plant response rating (0 to 100 scale) (kochia (Bassia scoparia) [16]; [20]): 0; Kochia plant response rating (0 to 100 scale) (kochia (Bassia scoparia) [16]; [21]): 0; Barnyardgrass plant response rating (0 to 100 scale) [17, 20]: 0; Barnyardgrass plant response rating (0 to 100 scale) [17, 21]: 0; Ryegrass, Italian plant response rating (0 to 100 scale) [18, 20]: 0; Ryegrass, Italian plant response rating (0 to 100 scale) [18, 21]: 20 |
| CON=C(c1ccc(F)c(Br)c1)c1c(O)c(C)nn(C)c1=O [Compound 176] | 0 | 0 | 0 | 0 | 60 | 90 | 70 | 80 | 0 | 0 | 0 | 30 | 10 | 20 | 30 | 70 | 20 | 70 | 30 | 40 | Ryegrass, Italian plant response rating (0 to 100 scale) ([12]; Postemergence, 31 g ai/ha): 60; Ryegrass, Italian plant response rating (0 to 100 scale) [12, 19]: 90; Corn plant response rating (0 to 100 scale) (corn (Zea mays); Postemergence, 31 g ai/ha): 0; Corn plant response rating (0 to 100 scale) (corn (Zea mays); [19]): 0; Pigweed plant response rating (0 to 100 scale) ([13]; 125 g ai/ha): 60; Pigweed plant response rating (0 to 100 scale) [13, 20]: 10; Foxtail, Giant plant response rating (0 to 100 scale) ([14]; 125 g ai/ha): 10; Foxtail, Giant plant response rating (0 to 100 scale) [14, 20]: 0; Ragweed plant response rating (0 to 100 scale) ([15]; 125 g ai/ha): 20; Ragweed plant response rating (0 to 100 scale) [15, 20]: 10; Kochia plant response rating (0 to 100 scale) (kochia (Bassia scoparia) [16]; 125 g ai/ha): 0; Kochia plant response rating (0 to 100 scale) (kochia (Bassia scoparia) [16]; [20]): 0; Barnyardgrass plant response rating (0 to 100 scale) ([17]; 125 g ai/ha): 0; Barnyardgrass plant response rating (0 to 100 scale) [17, 20]: 0; Ryegrass, Italian plant response rating (0 to 100 scale) ([18]; 125 g ai/ha): 20; Ryegrass, Italian plant response rating (0 to 100 scale) [18, 20]: 10 |
| C#CCO/N=C(/c1ccc(F)c(Br)c1)c1c(O)c(C)nn(C)c1=O [Compound 163] | 0 | 0 | 0 | 0 | 70 | 90 | 40 | 70 | 60 | 80 | 20 | 60 | 20 | 70 | 30 | 60 | 30 | 50 | 20 | 50 | Ryegrass, Italian plant response rating (0 to 100 scale) ([12]; Postemergence, 31 g ai/ha): 50; Ryegrass, Italian plant response rating (0 to 100 scale) [12, 19]: 90; Corn plant response rating (0 to 100 scale) (corn (Zea mays); Postemergence, 31 g ai/ha): 0; Corn plant response rating (0 to 100 scale) (corn (Zea mays); [19]): 30; Pigweed plant response rating (0 to 100 scale) ([13]; 125 g ai/ha): 50; Pigweed plant response rating (0 to 100 scale) [13, 20]: 30; Foxtail, Giant plant response rating (0 to 100 scale) ([14]; 125 g ai/ha): 50; Foxtail, Giant plant response rating (0 to 100 scale) [14, 20]: 10; Ragweed plant response rating (0 to 100 scale) ([15]; 125 g ai/ha): 0; Ragweed plant response rating (0 to 100 scale) [15, 20]: 0; Kochia plant response rating (0 to 100 scale) (kochia (Bassia scoparia) [16]; 125 g ai/ha): 50; Kochia plant response rating (0 to 100 scale) (kochia (Bassia scoparia) [16]; [20]): 0; Barnyardgrass plant response rating (0 to 100 scale) ([17]; 125 g ai/ha): 30; Barnyardgrass plant response rating (0 to 100 scale) [17, 20]: 0; Ryegrass, Italian plant response rating (0 to 100 scale) ([18]; 125 g ai/ha): 100; Ryegrass, Italian plant response rating (0 to 100 scale) [18, 20]: 70 |
| CO/N=C(/c1c(O)c(C)nn(C)c1=O)c1cc(SC)cc2ccccc12 [Compound 298] | 0 | 0 | 0 | 0 | 0 | 30 | 0 | 40 | 0 | 0 | 0 | 20 | 0 | 0 | 0 | 10 | 0 | 10 | 0 | 0 | Ryegrass, Italian plant response rating (0 to 100 scale) ([12]; Postemergence, 31 g ai/ha): 0; Ryegrass, Italian plant response rating (0 to 100 scale) [12, 19]: 0; Corn plant response rating (0 to 100 scale) (corn (Zea mays); Postemergence, 31 g ai/ha): 0; Corn plant response rating (0 to 100 scale) (corn (Zea mays); [19]): 0; Pigweed plant response rating (0 to 100 scale) [13, 20]: 0; Pigweed plant response rating (0 to 100 scale) [13, 21]: 10; Foxtail, Giant plant response rating (0 to 100 scale) [14, 20]: 0; Foxtail, Giant plant response rating (0 to 100 scale) [14, 21]: 0; Ragweed plant response rating (0 to 100 scale) [15, 20]: 0; Ragweed plant response rating (0 to 100 scale) [15, 21]: 0; Kochia plant response rating (0 to 100 scale) (kochia (Bassia scoparia) [16]; [20]): 0; Kochia plant response rating (0 to 100 scale) (kochia (Bassia scoparia) [16]; [21]): 0; Barnyardgrass plant response rating (0 to 100 scale) [17, 20]: 0; Barnyardgrass plant response rating (0 to 100 scale) [17, 21]: 0; Ryegrass, Italian plant response rating (0 to 100 scale) [18, 20]: 0; Ryegrass, Italian plant response rating (0 to 100 scale) [18, 21]: 0 |
